In one experiment the target is T1, human MCP (Homo sapiens, UniProt P28074+Q99436).
T1 construct: Samples of human liver and brain obtained post-mortem were used for isolation and partial purification of MCP; from tissue; host or cells: human liver and brain, post-mortem
The experiment is described as follows: Determination of IC50 values for MCP inhibitors (chymotrypsin-like or trypsin-like activity of MCP). Type of experiment: biochemical. The note with it: Table 5, first series; enzyme incubated with inhibitor 15 minutes at 37° C. prior to substrate. How it is done:
Samples of human liver and brain obtained post-mortem were used for isolation and partial purification of MCP by ion-exchange chromatography, ammonium sulfate precipitation, and gel filtration (e.g., Driscoll and Goldberg, Proc. Natl. Acad. Sci. 86, 787-791 (1989); Yamamoto et al., Biochim, Biophys. Acta 882, 297-304 (1986). For either starting material, tissue was homogenized in 10 volumes of 20 mM Tris-HCl (pH 7.5) containing 20% glycerol. Following centrifugation at 40,000×g for 30 minutes, proteolytic activity of the chymotrypsin-like component of MCP could be detected in the supernatant (see below). The supernatant was fractionated on a DEAE-Sepharose Fast Flow column equilibrated in homogenization buffer. For each liter of supernatant, 250 ml of resin was used. Following sample loading, the column was washed with ^~ 10 volumes homogenization buffer, and proteins were eluted with a linear NaCl gradient of from 0 to 400 mM (21 for 250 ml resin). Fractions were assayed for MCP activity, and the active fractions were pooled and subjected to precipitation with (NH4)2 SO4 at 80% saturation. Precipitated proteins were collected by centrifugation, resuspended in homogenization buffer, and loaded on a Sephacryl S300HR column (500 ml resin volume) that had been standardized using bovine serum albumin (68 kDa). A single peak of MCP activity was eluted with a molecular weight of ^~ 650 kDa. This preparation was free of other measurable proteolytic activities and maintained its MCP activity upon storage at 4° C. for >6 months. This preparation was used for most of the experiments. Further fractionation of the preparation on an hydroxyapatite-Ultrogel column (Yamamoto et al., supra) yielded a more highly purified enzyme, which according to denaturing SDS-polyacrylamide gel electrophoresis was comprised of the expected >10 subunits ranging in Mr from 20 to 35 kDa.
The procedure for MPC isolation described above generated an enzyme complex whose proteolytic activities were latent, but which could be activated by addition of low concentrations (0.02-0.05%) of SDS (Yamamoto et al., supra). The chymotrypsin-like activity was assayed according to the following procedure: in 96 well microtiter plates, human MCP was diluted 4 to 10-fold in homogenization buffer containing 0.04% SDS. A calorimetric substrate MeOSuc-EVKM-para-nitroanilide (methoxysuccinyl-Glu-Val-Lys-Met-pNa), purchased from Bachem Bioscience Inc., King of Prussia, Pennsylvania was added to a final concentration of 100 μM from a stock solution of 10 mM in dimethylsulfoxide. Reaction volumes were 200 μl per well. After incubation for various periods of time at 37° C., the concentration of free pNa was determined on a Biotech EL-340 microplate reader, reading absorption at 490 nm. Protease activity was determined under conditions in which substrate hydrolysis increased linearly with time and the change in absorption was proportional to the concentration of free pNa. Alternatively, a fluorogenic substrate was used, methoxysuccinyl-Phe-Leu-Phe-amidomethylcoumarin (Enzyme Systems Products, Dublin, Calif.), and the change in fluorescence monitored at an excitation of 390 nm, and an emission at 460 nm.
The trypsin-like activity of human MCP was assayed as described above with the following modifications. Reactions were carried out in Tris-glycerol buffer (pH 9.5) supplemented with 1 mM 2-mercaptoethanol, and the substrate was a fluorogenic substrate, Benzyloxycarbonyl--Phe--Arg--AMC (100 μM).
After incubation for various periods of time at 37° C., the concentration of free AMC was determined on a Fluoroskan II spectrofluorimeter with an excitation filter of 390 nm and an emission filter of 460 nm. Protease activity was determined under conditions in which substrate hydrolysis increased linearly with time and the change in fluorescence was proportional to the concentration of free AMC. […]

Experiment [1] has as its system processing of electroporated OVA by M12.B6 cells. Put plainly: Inhibition of MHC-I processing of electroporated OVA. It counts as cell-based, mouse. The note with it: FIGS. 2 and 3, IL-2 secretion by T hybridoma cells. How it is done:
Compounds of the invention were assayed for the ability to inhibit the processing of exogenous OVA antigen by the class I major histocompatibility pathway (MHC-I). The MCP inhibitors were applied to a functional antigen processing system that allows inclusion of the inhibitor within the antigen processing cell during exposure to antigen, followed by fixation of the processing cell. T cell hybridomas are then added to the processing cells in the absence of inhibitor to determine the expression of peptide-MHC-I complexes, which reflects antigen processing prior to fixation.
Cells were grown at 37° C. in a humidified atmosphere maintained at 5% CO2 in a standard medium: DMEM (Gibco, St. Louis, Mo.) with 10% fetal calf serum (Hyclone, Logan Utah), 5×10^-5 M 2-mercaptoethanol, antibiotics and the following supplements: L-arginine HCl (116 mg/L), L-asparagine (36 mg/L), NaHCO3 (2 g/L), sodium pyruvate (1 mM). See also Harding, C. V., (1992) Eur. J. Immunol. 22: 1865-1869. […]
Electroporation was performed with a Gibco BEL Electroporator using 0.4 cm gap cuvette chambers. […] The extent of processing, (i.e., the level of specific peptide-MHC complexes expressed) was determined by the ability of the M12.B6 cells to stimulate IL-2 secretion by B3.1 or DOBW T hybridoma cells. […]

Results on two molecules are retold here after US5990083A, “Multicatalytic protease inhibitors” (Cephalon, Inc., priority 1997, dated 1999).

Several values for one entry are separate records, joined by “and”; a condition that tells them apart may be missing. Equal entries are not always repeated.

As usually defined, the IC50 is the concentration at which inhibition is half-maximal. Lower therefore signals greater potency in that assay. In turn, `COC(=O)CCCCCCCC(C(=O)N[C@@H](CCCNC(=N)NS(=O)(=O)c1c(C)c(C)c2c(c1C)CCC(C)(C)O2)C(=O)N[C@H](C=O)CC(C)C)C1CCCC1` (stereo partly drawn) [Compound 20, 9-Methoxycarbonyl-2-cyclopentyl-nonanoyl-N^g-(2,2,5,7,8-pentamethylchroman-6-sulfonyl)-L-arginyl-L-leucinal] came in with an IC50 at human MCP of 10 nM. In addition, the “Effect on MHC-1 OVA processing” value in experiment [1] is recorded as “effectively inhibit OVA processing”.

Consider `CC(C)C[C@@H](C=O)NC(=O)[C@H](CCCNC(=N)N[N+](=O)[O-])NC(=O)C(CCCCCCCCC#N)C1CCCC1` (stereo partly drawn) [Compound 14, 10-cyano-2-cyclopentyldecanoyl-N^g-nitro-L-arginyl-L-leucinal], for which the IC50 at human MCP is 7 nM and 6 nM. For the same molecule, the “Effect on MHC-1 OVA processing” value in experiment [1] is recorded as “effectively inhibit OVA processing”.
